According to patent EP4759812A1 (Guangzhou Lupeng Pharmaceutical Co., Ltd., priority 2023, dated 2025):
“Also recorded” adds a separate entry of the source.

What was measured:
Assay type in all cases: physicochemical
[1] = Morphological comparison under polarizing light microscope
[2] = Influencing factor stability: light exposure test; details: Visible light 4500 Lux ± 500 Lux; for Crystal form: ultraviolet light 1.7 W*h/m^2 (25°C, RH 60%±5%), XRPD; for Purity: HPLC, starting purity: Crystal form VI 99.32%, Amorphous form 98.80%, Crystal form XIII 99.01%
Method: (§1) The crystal form results under different conditions were identified by XRPD analysis, and the purity results under different conditions were identified by HPLC analysis.
(§2) The above samples were then taken on days 5, 10, 15, and 30, respectively. Their crystal forms were tested by adopting X-ray powder diffraction (XRPD), and the sample purities were tested by adopting HPLC. […]

[3] = Influencing factor stability: high-temperature test; details: Temperature 60°C; for Purity: HPLC, starting purity: Crystal form VI 99.32%, Amorphous form 98.80%, Crystal form XIII 99.01%; for Crystal form: XRPD
Method: as §1, §2

[4] = Stability test in pure water and buffer solution (suspension, XRPD); details: 25°C, stirred 24 h, solid by XRPD
Method: The suspensions were stirred at 25°C for 24 h, and filtered to obtain the solids. Samples were taken for XRPD measurement. […]

[5] = Influencing factor stability: high-humidity test; details: Temperature 25°C, relative humidity 92.5±5%; for Purity: HPLC, starting purity: Crystal form VI 99.32%, Amorphous form 98.80%, Crystal form XIII 99.01%; for Crystal form: XRPD
Method: as §1, §2

Long-term stability test = details: 25±2°C, 60±5 RH %; for Crystal form: XRPD
[6] = Dynamic vapor sorption (DVS) experiment; details: for Hygroscopicity: class per Chinese Pharmacopoeia 2010 guidance (25±0.2°C, 80% relative humidity)
[7] = Accelerated stability test; details: 40±2°C, 75±5 RH %; for Crystal form: XRPD

crystal morphology ([1]; polarizing light microscope): long rod-shaped
Crystal form ([2]; 5 days): Crystal form VI
Crystal form ([2]; 10 days): Crystal form VI
Crystal form ([2]; 15 days): Crystal form VI
Crystal form ([2]; 30 days): Crystal form VI
Purity ([2]; ultraviolet light 1.7 W*h/m^2, 5 days): 99.17%
Purity ([2]; ultraviolet light 1.7 W*h/m^2, 10 days): 99.23%
Purity ([2]; ultraviolet light 1.7 W*h/m^2, 15 days): 98.71%
Purity ([2]; ultraviolet light 1.7 W*h/m^2, 30 days): 98.14%
Purity ([3]; 5 days): 99.31%
Crystal form ([3]; 5 days): Crystal form VI
Purity ([3]; 10 days): 99.25%
Crystal form ([3]; 10 days): Crystal form VI
Purity ([3]; 15 days): 98.96%
Crystal form ([3]; 15 days): Crystal form VI
Purity ([3]; 30 days): 98.72%
Crystal form ([3]; 30 days): Crystal form VI
Crystal form ([3]; 30 days, listed as crystal form VI): no change in crystal form
Suspension result ([4]; Pure water): Crystal form VI
Suspension result ([4]; pH 4.5 buffer solution): Crystal form VI
Suspension result ([4]; pH 6.8 buffer solution): Crystal form VI
Purity ([5]; 5 days): 99.35%
Crystal form ([5]; 5 days): Crystal form VI
Purity ([5]; 10 days): 99.35%
Crystal form ([5]; 10 days): Crystal form VI
Purity ([5]; 15 days): 99.32%
Crystal form ([5]; 15 days): Crystal form VI
Purity ([5]; 30 days): 99.31%
Crystal form ([5]; 30 days): Crystal form VI
Purity (Long-term stability test; 0 days): 99.32%
Crystal form (Long-term stability test; 0 days): Crystal form VI
Purity (Long-term stability test; 1 month): 99.31%
Crystal form (Long-term stability test; 1 month): Crystal form VI
Purity (Long-term stability test; 6 months): 99.35%
Crystal form (Long-term stability test; 6 months): Crystal form VI
Purity (Long-term stability test; 12 months): 99.28%
Crystal form (Long-term stability test; 12 months): Crystal form VI
Purity (Long-term stability test; 18 months): 99.31%
Crystal form (Long-term stability test; 18 months): Crystal form VI
Purity (Long-term stability test; 24 months): 99.30%
Crystal form (Long-term stability test; 24 months): Crystal form VI
Crystal form (Long-term stability test; 24 months, listed as crystal form VI): no change in crystal form
Adsorption weight gain (80% RH) ([6]; DVS, 80% RH): 0.79%
Adsorption weight gain (95% RH) ([6]; DVS, 95% RH): 1.34%
Purity ([7]; 0 days): 99.32%
Crystal form ([7]; 0 days): Crystal form VI
Purity ([7]; 1 month): 99.18%
Crystal form ([7]; 1 month): Crystal form VI
Purity ([7]; 3 months): 98.98%
Crystal form ([7]; 3 months): Crystal form VI
Purity ([7]; 6 months): 98.54%
Crystal form ([7]; 6 months): Crystal form VI
Crystal form ([7]; 6 months, listed as crystal form VI): no change in crystal form
SMILES: C=CC(=O)Nc1cc(Nc2nc(-c3ccnc(N4CCn5c(cc6c5CC(C)(C)C6)C4=O)c3CO)cn(C)c2=O)ccc1N1CCN(C2CCOCC2)C[C@@H]1C [Crystal form VI, (S)-N-(5-((6-(2-(7,7-dimethyl-1-oxo-1,3,4,6,7,8-hexahydro-2H-cyclopenta[4,5]pyrrolo[1,2-a]pyrazin-2-yl)-3-(hydroxymethyl)pyridin-4-yl)-4-methyl-3-oxo-3,4-dihydropyrazin-2-yl)amino)-2-(2-methyl-4-(tetrahydro-2H-pyran-4-yl)piperazin-1-yl)phenyl)acrylamide]
dispersibility and flowability / agglomeration and caking ([1]; judged from polarizing light microscope images): relatively good dispersibility and flowability
Hygroscopicity [6]: Slightly hygroscopic (hygroscopic weight gain is less than 2% but not less than 0.2%)
Hygroscopicity ([6]; listed as crystal form VI): slightly hygroscopic; also recorded: slight hygroscopicity
